Test results as given in PubChem BioAssay (NCI).
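GI50 = concentration required for 50% inhibition of growth. The concentration for full growth arrest is given as TGI.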

Columns and labels:
Assay in all cases: DTP human tumour cell line panel, 384-well format
CAKI-1 renal = test system: CAKI-1 renal
MDA-MB-468 breast = test system: MDA-MB-468 breast
ACHN renal = test system: ACHN renal
HOP-92 NSCLC = test system: HOP-92 NSCLC
MDA-MB-435 melanoma = test system: MDA-MB-435 melanoma
T-47D breast = test system: T-47D breast
HCC-2998 colon = test system: HCC-2998 colon
SK-MEL-5 melanoma = test system: SK-MEL-5 melanoma
RPMI-8226 leukemia = test system: RPMI-8226 leukemia
MCF7 breast = test system: MCF7 breast
MOLT-4 leukemia = test system: MOLT-4 leukemia
NCI-H522 lung = test system: NCI-H522 lung
SK-MEL-28 melanoma = test system: SK-MEL-28 melanoma
M14 melanoma = test system: M14 melanoma
HOP-62 NSCLC = test system: HOP-62 NSCLC
SW-620 colon = test system: SW-620 colon
OVCAR-5 ovarian = test system: OVCAR-5 ovarian
HL-60(TB) leukemia = test system: HL-60(TB) leukemia
SK-OV-3 ovarian = test system: SK-OV-3 ovarian
CCRF-CEM leukemia = test system: CCRF-CEM leukemia
OVCAR-3 ovarian = test system: OVCAR-3 ovarian
786-0 renal = test system: 786-0 renal
OVCAR-8 ovarian = test system: OVCAR-8 ovarian
HT29 colon = test system: HT29 colon
BT-549 breast = test system: BT-549 breast
K-562 leukemia = test system: K-562 leukemia
SN12C renal = test system: SN12C renal
OVCAR-4 ovarian = test system: OVCAR-4 ovarian
NCI/ADR-RES ovarian = test system: NCI/ADR-RES ovarian
LOX IMVI melanoma = test system: LOX IMVI melanoma
UACC-257 melanoma = test system: UACC-257 melanoma
NCI-H23 lung = test system: NCI-H23 lung
TK-10 renal = test system: TK-10 renal
UO-31 renal = test system: UO-31 renal
PC-3 prostate = test system: PC-3 prostate
EKVX NSCLC = test system: EKVX NSCLC
U251 glioblastoma = test system: U251 glioblastoma
COLO 205 colon = test system: COLO 205 colon
SNB-19 CNS = test system: SNB-19 CNS
HCT-15 colon = test system: HCT-15 colon
UACC-62 melanoma = test system: UACC-62 melanoma
NCI-H460 NSCLC = test system: NCI-H460 NSCLC
IGROV1 ovarian = test system: IGROV1 ovarian
MALME-3M melanoma = test system: MALME-3M melanoma
KM12 colon = test system: KM12 colon
A549 NSCLC = test system: A549 NSCLC
NCI-H226 lung = test system: NCI-H226 lung
DU-145 prostate = test system: DU-145 prostate
SF-295 CNS = test system: SF-295 CNS
HCT-116 colon = test system: HCT-116 colon
RXF 393 renal = test system: RXF 393 renal

In the case of `Cc1cc(-c2nc(-c3ccc(OC(F)(F)F)cc3)no2)nn1Cc1ccnc(N2CCN(C3CC3)CC2)c1`, the GI50 (CAKI-1 renal) is reported as 14.9 µM, the TGI (CAKI-1 renal) is reported as over 100 µM and the GI50 (MDA-MB-468 breast) is reported as under 10 nM. It also gave a TGI (MDA-MB-468 breast) of under 10 nM, a GI50 (ACHN renal) of 12.6 µM and a TGI (ACHN renal) of over 100 µM. For the same compound, the GI50 (HOP-92 NSCLC) was 3.45 µM, the TGI (HOP-92 NSCLC) was over 100 µM and the GI50 (MDA-MB-435 melanoma) was 5.96 µM. The TGI (MDA-MB-435 melanoma) was over 100 µM, the GI50 (T-47D breast) was under 10 nM and the TGI (T-47D breast) was 1500 nM. For the same compound, the GI50 (HCC-2998 colon) was 4.19 µM, the TGI (HCC-2998 colon) was 20.2 µM and the GI50 (SK-MEL-5 melanoma) was under 10 nM. It also gave a TGI (SK-MEL-5 melanoma) of 2240 nM, a GI50 (RPMI-8226 leukemia) of under 10 nM and a TGI (RPMI-8226 leukemia) of over 100 µM. The GI50 (MCF7 breast) was 470 nM, the TGI (MCF7 breast) was 15.4 µM and the GI50 (MOLT-4 leukemia) was under 10 nM. The TGI (MOLT-4 leukemia) was 7.05 µM, the GI50 (NCI-H522 lung) was under 10 nM and the TGI (NCI-H522 lung) was over 100 µM. It also gave a GI50 (SK-MEL-28 melanoma) of 12.9 µM, a TGI (SK-MEL-28 melanoma) of 28.7 µM and a GI50 (M14 melanoma) of 2130 nM. The TGI (M14 melanoma) was 7.15 µM, the GI50 (HOP-62 NSCLC) was under 10 nM and the TGI (HOP-62 NSCLC) was 20.7 µM. The GI50 (SW-620 colon) was 12.1 µM, the TGI (SW-620 colon) was 89.7 µM and the GI50 (OVCAR-5 ovarian) was 15.7 µM. For the same compound, the TGI (OVCAR-5 ovarian) was 86.1 µM, the GI50 (HL-60(TB) leukemia) was 1730 nM and the TGI (HL-60(TB) leukemia) was 11 µM. For the same compound, the GI50 (SK-OV-3 ovarian) was under 10 nM, the TGI (SK-OV-3 ovarian) was over 100 µM and the GI50 (CCRF-CEM leukemia) was under 10 nM. It also gave a TGI (CCRF-CEM leukemia) of under 10 nM, a GI50 (OVCAR-3 ovarian) of 6.51 µM and a TGI (OVCAR-3 ovarian) of over 100 µM. It also gave a GI50 ([…]-0 renal) of 4.88 µM, a TGI (786-0 renal) of over 100 µM and a GI50 (OVCAR-8 ovarian) of under 10 nM. For the same compound, the TGI (OVCAR-8 ovarian) was over 100 µM, the GI50 (HT29 colon) was 2430 nM and the TGI (HT29 colon) was 12.3 µM. For the same compound, the GI50 (BT-549 breast) was 2060 nM, the TGI (BT-549 breast) was 35.9 µM and the GI50 (K-562 leukemia) was under 10 nM. For the same compound, the TGI (K-562 leukemia) was 44.9 µM, the GI50 (SN12C renal) was 7.01 µM and the TGI (SN12C renal) was over 100 µM. For the same compound, the GI50 (OVCAR-4 ovarian) was 28.7 µM, the TGI (OVCAR-4 ovarian) was over 100 µM and the GI50 (NCI/ADR-RES ovarian) was under 10 nM. It also gave a TGI (NCI/ADR-RES ovarian) of over 100 µM, a GI50 (LOX IMVI melanoma) of under 10 nM and a TGI (LOX IMVI melanoma) of 14.1 µM. It also gave a GI50 (UACC-257 melanoma) of under 10 nM, a TGI (UACC-257 melanoma) of 3.31 µM and a GI50 (NCI-H23 lung) of under 10 nM. The TGI (NCI-H23 lung) was 84.8 µM, the GI50 (TK-10 renal) was 40.9 µM and the TGI (TK-10 renal) was over 100 µM. The GI50 (UO-31 renal) was 15.7 µM, the TGI (UO-31 renal) was over 100 µM and the GI50 (PC-3 prostate) was 2990 nM. The TGI (PC-3 prostate) was 66.9 µM, the GI50 (EKVX NSCLC) was under 10 nM and the TGI (EKVX NSCLC) was 62.6 µM. It also gave a GI50 (U251 glioblastoma) of 1830 nM, a TGI (U251 glioblastoma) of over 100 µM and a GI50 (COLO 205 colon) of 5.77 µM. It also gave a TGI (COLO 205 colon) of over 100 µM, a GI50 (SNB-19 CNS) of 10.9 µM and a TGI (SNB-19 CNS) of over 100 µM. The GI50 (HCT-15 colon) was 1440 nM, the TGI (HCT-15 colon) was 18.8 µM and the GI50 (UACC-62 melanoma) was 9.33 µM. It also gave a TGI (UACC-62 melanoma) of 21.8 µM, a GI50 (NCI-H460 NSCLC) of under 10 nM and a TGI (NCI-H460 NSCLC) of under 10 nM. For the same compound, the GI50 (IGROV1 ovarian) was 9.15 µM, the TGI (IGROV1 ovarian) was over 100 µM and the GI50 (MALME-3M melanoma) was 4.82 µM. It also gave a TGI (MALME-3M melanoma) of 18.3 µM, a GI50 (KM12 colon) of 5.2 µM and a TGI (KM12 colon) of 70.4 µM. It also gave a GI50 (A549 NSCLC) of under 10 nM, a TGI (A549 NSCLC) of over 100 µM and a GI50 (NCI-H226 lung) of 4.01 µM. It also gave a TGI (NCI-H226 lung) of over 100 µM, a GI50 (DU-145 prostate) of 20.3 µM and a TGI (DU-145 prostate) of over 100 µM. For the same compound, the GI50 (SF-295 CNS) was over 100 µM, the TGI (SF-295 CNS) was over 100 µM and the GI50 (HCT-116 colon) was under 10 nM. The TGI (HCT-116 colon) was over 100 µM, the GI50 (RXF 393 renal) was under 10 nM and the TGI (RXF 393 renal) was under 10 nM.
